Measurements: patent publication US9663519B2, “Compounds useful as inhibitors of ATR kinase” (Vertex Pharmaceuticals Incorporated, priority 2013, dated 2017)

Legend:
full-length ATR = full-length ATR (Homo sapiens (Human), UniProt Q13535); assay: ATR Inhibition Assay (radioactive-phosphate incorporation); format: biochemical; details: Ki(app); 5 nM full-length ATR, 10 μM ATP, 25° C.
Experimental: Compounds were screened for their ability to inhibit ATR kinase using a radioactive-phosphate incorporation assay. Assays were carried out in a mixture of 50 mM Tris/HCl (pH 7.5), 10 mM MgCl2 and 1 mM DTT. Final substrate concentrations were 10 μM [γ-33P]ATP (3 mCi 33P ATP/mmol ATP, Perkin Elmer) and 800 μM target peptide (ASELPASQPQPFSAKKK (SEQ. ID NO: 1)).
Assays were carried out at 25° C. in the presence of 5 nM full-length ATR. An assay stock buffer solution was prepared containing all of the reagents listed above, with the exception of ATP and the test compound of interest. 13.5 μL of the stock solution was placed in a 96 well plate followed by addition of 2 μL of DMSO stock containing serial dilutions of the test compound (typically starting from a final concentration of 15 μM with 3-fold serial dilutions) in duplicate (final DMSO concentration 7%). The plate was pre-incubated for 10 minutes at 25° C. and the reaction initiated by addition of 15 μL [γ-33P]ATP (final concentration 10 μM).
The reaction was stopped after […] by the addition of 30 μL 0.1M phosphoric acid containing 2 mM ATP. A multiscreen phosphocellulose filter 96-well plate (Millipore, Cat no. MAPHN0B50) was pretreated with 100 μL 0.2M phosphoric acid prior to the addition of 45 μL of the stopped assay mixture. The plate was washed with 5×200 μL 0.2M phosphoric acid. After drying, 100 μL Optiphase ‘SuperMix’ liquid scintillation cocktail (Perkin Elmer) was added to the well prior to scintillation counting (1450 Microbeta Liquid Scintillation Counter, Wallac).
After removing mean background values for all of the data points, Ki(app) data were calculated from non-linear regression analysis of the initial rate data using the Prism software package (GraphPad Prism version 3.0cx for Macintosh, GraphPad Software, San Diego Calif., USA).

[1] = tested on: HCT116 colorectal cancer cells; assay: Cisplatin Sensitization Assay (96 h cell viability MTS); format: cell-based; details: Cisplatin sensitization value: concentration of compound required to reduce the IC50 of Cisplatin alone by at least 3-fold; HCT116, 96 h MTS
Experimental: Compounds can be screened for their ability to sensitize HCT116 colorectal cancer cells to Cisplatin using a 96 h cell viability (MTS) assay. […] Compounds and Cisplatin are then both added simultaneously to the cell media in 2-fold serial dilutions from a top final concentration of 10 μM as a full matrix of concentrations in a final cell volume of 200 μl, and the cells are then incubated at 37° C. in 5% CO2. After 96 h, 40 μl of MTS reagent (Promega G358a) is added to each well and the cells are incubated for 1 h at 37° C. in 5% CO2. Finally, absorbance is measured at 490 nm using a SpectraMax Plus 384 reader (Molecular Devices) and the concentration of compound required to reduce the IC50 of Cisplatin alone by at least 3-fold (to 1 decimal place) can be reported.

full-length ATR, sequence (Q13535 whole entry): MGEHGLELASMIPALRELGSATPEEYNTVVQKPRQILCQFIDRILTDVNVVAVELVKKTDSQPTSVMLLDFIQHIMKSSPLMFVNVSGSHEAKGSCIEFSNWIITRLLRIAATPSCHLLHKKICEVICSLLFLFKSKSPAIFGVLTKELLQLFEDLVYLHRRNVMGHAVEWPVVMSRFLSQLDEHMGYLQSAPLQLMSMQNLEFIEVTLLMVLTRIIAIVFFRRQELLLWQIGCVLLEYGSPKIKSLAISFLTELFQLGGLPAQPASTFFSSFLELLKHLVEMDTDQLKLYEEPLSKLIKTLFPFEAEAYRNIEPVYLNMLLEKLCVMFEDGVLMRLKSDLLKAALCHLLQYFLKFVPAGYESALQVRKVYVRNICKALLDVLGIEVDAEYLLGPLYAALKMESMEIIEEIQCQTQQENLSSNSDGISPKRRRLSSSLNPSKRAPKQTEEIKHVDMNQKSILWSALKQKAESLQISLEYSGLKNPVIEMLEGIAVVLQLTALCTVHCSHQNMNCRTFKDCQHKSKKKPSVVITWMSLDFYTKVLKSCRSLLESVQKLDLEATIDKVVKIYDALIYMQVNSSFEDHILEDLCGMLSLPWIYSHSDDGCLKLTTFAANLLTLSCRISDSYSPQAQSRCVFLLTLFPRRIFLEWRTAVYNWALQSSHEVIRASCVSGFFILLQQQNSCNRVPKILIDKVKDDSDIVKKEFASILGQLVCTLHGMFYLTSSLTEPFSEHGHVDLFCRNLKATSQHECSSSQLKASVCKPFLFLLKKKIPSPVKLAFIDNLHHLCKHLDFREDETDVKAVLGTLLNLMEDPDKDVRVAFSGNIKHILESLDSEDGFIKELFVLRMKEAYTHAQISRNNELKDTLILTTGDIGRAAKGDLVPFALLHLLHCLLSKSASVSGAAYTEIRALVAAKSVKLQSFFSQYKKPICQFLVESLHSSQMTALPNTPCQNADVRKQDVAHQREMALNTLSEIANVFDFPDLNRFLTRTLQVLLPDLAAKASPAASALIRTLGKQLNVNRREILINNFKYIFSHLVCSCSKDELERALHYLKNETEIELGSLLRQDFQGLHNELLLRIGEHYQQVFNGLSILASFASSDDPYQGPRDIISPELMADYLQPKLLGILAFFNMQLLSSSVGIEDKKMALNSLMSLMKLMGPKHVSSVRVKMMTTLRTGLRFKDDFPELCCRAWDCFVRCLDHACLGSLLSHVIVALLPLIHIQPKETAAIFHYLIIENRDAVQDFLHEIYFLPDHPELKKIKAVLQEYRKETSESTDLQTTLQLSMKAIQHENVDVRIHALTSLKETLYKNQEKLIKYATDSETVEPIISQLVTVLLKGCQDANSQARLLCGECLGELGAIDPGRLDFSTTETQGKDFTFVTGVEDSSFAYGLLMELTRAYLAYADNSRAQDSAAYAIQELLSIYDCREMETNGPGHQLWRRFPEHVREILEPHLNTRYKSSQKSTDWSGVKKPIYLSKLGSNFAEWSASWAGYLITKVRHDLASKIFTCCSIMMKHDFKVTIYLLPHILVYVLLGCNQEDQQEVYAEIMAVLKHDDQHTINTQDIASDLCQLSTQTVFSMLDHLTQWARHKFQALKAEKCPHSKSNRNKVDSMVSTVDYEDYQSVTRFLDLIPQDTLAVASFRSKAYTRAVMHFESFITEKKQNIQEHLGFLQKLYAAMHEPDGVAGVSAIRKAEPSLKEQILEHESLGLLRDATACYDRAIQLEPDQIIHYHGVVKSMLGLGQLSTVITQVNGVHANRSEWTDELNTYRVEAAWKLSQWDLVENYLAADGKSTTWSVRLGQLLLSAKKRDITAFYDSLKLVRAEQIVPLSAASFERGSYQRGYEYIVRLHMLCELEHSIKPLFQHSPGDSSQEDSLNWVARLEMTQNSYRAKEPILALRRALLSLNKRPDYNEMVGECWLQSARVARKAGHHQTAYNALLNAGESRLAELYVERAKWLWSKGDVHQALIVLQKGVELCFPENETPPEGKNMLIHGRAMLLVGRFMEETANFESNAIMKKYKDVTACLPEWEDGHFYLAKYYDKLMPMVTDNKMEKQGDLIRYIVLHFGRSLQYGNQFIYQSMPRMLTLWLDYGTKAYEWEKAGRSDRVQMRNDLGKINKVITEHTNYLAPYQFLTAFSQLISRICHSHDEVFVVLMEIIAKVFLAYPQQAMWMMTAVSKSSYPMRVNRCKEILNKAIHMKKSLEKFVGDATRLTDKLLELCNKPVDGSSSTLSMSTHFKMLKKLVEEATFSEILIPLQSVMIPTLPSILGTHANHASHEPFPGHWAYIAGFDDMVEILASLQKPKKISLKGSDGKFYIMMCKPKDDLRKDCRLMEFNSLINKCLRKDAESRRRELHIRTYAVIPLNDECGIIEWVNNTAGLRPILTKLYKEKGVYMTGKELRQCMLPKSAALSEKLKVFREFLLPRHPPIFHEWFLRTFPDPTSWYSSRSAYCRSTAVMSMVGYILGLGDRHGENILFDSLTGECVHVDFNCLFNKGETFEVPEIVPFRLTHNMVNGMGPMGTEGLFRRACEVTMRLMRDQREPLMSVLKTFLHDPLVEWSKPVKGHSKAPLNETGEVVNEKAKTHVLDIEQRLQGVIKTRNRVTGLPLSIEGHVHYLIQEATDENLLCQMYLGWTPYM

SMILES | Ki (full-length ATR) | Synergy with Cisplatin [1]
Cc1ccncc1NC(=O)c1c(N)nn2cc3c(nc12)CCNC3 [Compound I-1, 2-amino-N-(4-methylpyridin-3-yl)-5,6,7,8-tetrahydropyrazolo[1,5-a]pyrido[4,3-d]pyrimidine-3-carboxamide] | 10 to 1000 nM | ++ (Cisplatin sensitization value >0.02 μM but <0.2 μM)
CC(C)Oc1ccncc1NC(=O)c1c(N)nn2cc3c(nc12)CCNC3 [Compound I-3, 2-amino-N-(4-isopropoxypyridin-3-yl)-5,6,7,8-tetrahydropyrazolo[1,5-a]pyrido[4,3-d]pyrimidine-3-carboxamide] | 10 to 1000 nM | +++ (Cisplatin sensitization value of <0.02 μM)
Nc1nn2cc3c(nc2c1C(=O)Nc1cnccc1OCC(F)(F)F)CCNC3 [Compound I-4, 2-amino-N-(4-(2,2,2-trifluoroethoxy)pyridin-3-yl)-5,6,7,8-tetrahydropyrazolo[1,5-a]pyrido[4,3-d]pyrimidine-3-carboxamide] | 10 to 1000 nM | +++ (Cisplatin sensitization value of <0.02 μM)
COc1cc(Cl)ncc1NC(=O)c1c(N)nn2cc3c(nc12)CCN(C)C3 [Compound I-7, 2-amino-N-(6-chloro-4-methoxypyridin-3-yl)-7-methyl-5,6,7,8-tetrahydropyrazolo[1,5-a]pyrido[4,3-d]pyrimidine-3-carboxamide] | 10 to 1000 nM | ++ (Cisplatin sensitization value >0.02 μM but <0.2 μM)
Nc1nn2cc3c(nc2c1C(=O)Nc1cnccc1OC1CCOCC1)CCNC3 [Compound I-8, 2-amino-N-(4-((tetrahydro-2H-pyran-4-yl)oxy)pyridin-3-yl)-5,6,7,8-tetrahydropyrazolo[1,5-a]pyrido[4,3-d]pyrimidine-3-carboxamide] | 10 to 1000 nM | ++ (Cisplatin sensitization value >0.02 μM but <0.2 μM)
Nc1nn2cc3c(nc2c1C(=O)Nc1cnccc1-c1ccccc1)CCN(C1COC1)C3 [Compound I-23, 2-amino-7-(oxetan-3-yl)-N-(4-phenylpyridin-3-yl)-5,6,7,8-tetrahydropyrazolo[1,5-a]pyrido[4,3-d]pyrimidine-3-carboxamide] | 10 to 1000 nM | 
COc1ccncc1NC(=O)c1c(N)nn2cc3c(nc12)CCN(C(C)(C)C)C3 [Compound I-29, 2-amino-7-(tert-butyl)-N-(4-methoxypyridin-3-yl)-5,6,7,8-tetrahydropyrazolo[1,5-a]pyrido[4,3-d]pyrimidine-3-carboxamide] | 10 to 1000 nM | 
Cn1cncc1-c1ccncc1NC(=O)c1c(N)nn2cc3c(nc12)CCN(C1COC1)C3 [Compound I-32, 2-amino-N-(4-(1-methyl-1H-imidazol-5-yl)pyridin-3-yl)-7-(oxetan-3-yl)-5,6,7,8-tetrahydropyrazolo[1,5-a]pyrido[4,3-d]pyrimidine-3-carboxamide] | 10 to 1000 nM | 

Further lines, with some results ahead:

Ki (full-length ATR) | SMILES | Synergy with Cisplatin [1]
10 to 1000 nM | COc1ccncc1NC(=O)c1c(N)nn2cc3c(nc12)CCNC3 [Compound I-2, 2-amino-N-(4-methoxypyridin-3-yl)-5,6,7,8-tetrahydropyrazolo[1,5-a]pyrido[4,3-d]pyrimidine-3-carboxamide] | ++ (Cisplatin sensitization value >0.02 μM but <0.2 μM)
10 to 1000 nM | COc1c(Cl)cncc1NC(=O)c1c(N)nn2cc3c(nc12)CCNC3 [Compound I-5, 2-amino-N-(5-chloro-4-methoxypyridin-3-yl)-5,6,7,8-tetrahydropyrazolo[1,5-a]pyrido[4,3-d]pyrimidine-3-carboxamide] | ++ (Cisplatin sensitization value >0.02 μM but <0.2 μM)
10 to 1000 nM | COc1cc(Cl)ncc1NC(=O)c1c(N)nn2cc3c(nc12)CCNC3 [Compound I-6, 2-amino-N-(6-chloro-4-methoxypyridin-3-yl)-5,6,7,8-tetrahydropyrazolo[1,5-a]pyrido[4,3-d]pyrimidine-3-carboxamide] | ++ (Cisplatin sensitization value >0.02 μM but <0.2 μM)
